Laboratory results as given in patent publication US9005677B2, “Autophagy enhancer for treatment of neurodegenerative diseases” (Macau University of Science and Technology, priority 2013, dated 2015).

Columns and labels:
[1] = system: PC-12 cells; test: Cell viability by crystal violet staining; format: cell-based, rat; conditions: 24 hours
Procedure: Cell culture and cytotoxicity assay: The test compound of Onjisaponin B was dissolved in DMSO at a final concentration of 100 mmol/L and stored at −20° C. Cytotoxicity was assessed using the 3-(4,5-dimethylthiazol-2-yl) -2,5-diphenyltetrazolium bromide assay as described previously. PC-12, 4000 cells were seeded on 96-well plates per well. After overnight pre-incubation, the cells were exposed to different concentrations of Onjisaponin B (0.039-100 μmol/L) for 2 days. Subsequently, 10 μL of MTT reagents was added to each well and incubated at 37° C. for 4 hours followed by the addition of 100 μL solubilization buffer (10% SDS in 0.01 mol/L HCl) and overnight incubation. Absorbance at 585 nm was determined from each well the next day. For cell viability assay measured by crystal violet staining, PC-12 cells were incubated in 35 mm disc followed by the addition of Onjisaponin B at the indicated concentrations for 24 hours. The cells were then incubated with crystal violet for 10 minutes followed by a ddH2O wash. […] Cell viability was quantified by dissolving the stained cells in 10% acetic acid (200 μL/well). The colorimetric reading of the solute mixture was then determined by spectrophotometer at OD 560 nm The percentage of cell viability was calculated using the following formula: Cell viability (%)=Cells number treated/Cells number DMSO control×100. […]

[2] = system: LC3-II conversion in PC12 cells; test: Western blot of autophagic marker protein LC3 conversion; format: cell-based
Procedure: Detection of autophagic marker protein LC3 conversion. After drug treatments with or without autophagy inhibitor ([…] E64D and pepstain A), cells were harvested and lysed in RIPA buffer (Cell Signaling Technologies Inc., Beverly, Mass.). The cell lysates were then resolved by SDS-PAGE. After electrophoresis, the proteins from SDS-PAGE were transferred to nitrocellulose membrane which was then blocked with 5% non-fat dried milk for 60 minutes. The membrane was then incubated with LC3 primary antibodies (1:1000) in TBST overnight at 4° C. After that, the membrane was further incubated with HRP-conjugated secondary antibodies for 60 minutes. Finally, protein bands were visualized by using the ECL Western Blotting Detection Reagents (Invitrogen, Paisley, Scotland, UK).

[3] = system: Atg7 wild-type mouse embryonic fibroblasts; test: GFP-LC3 puncta in Atg7 wild-type MEFs; format: cell-based
Procedure: Quantification of autophagy GFP-LC3 Puncta in Atg7 wild type and deficient MEFs. GFP-LC3 puncta formation was quantified as described previously. In brief, both Atg7 wild-type and deficient mouse embryonic fibroblasts (MEFs) grown on coverslips in a 6-well plate were treated with indicated concentrations of Onjisaponin B. The cells were then fixed in 4% paraformaldehyde for 20 minutes at room temperature and then rinsed with PBS. Slides were mounted with FluorSave™ mounting media (Calbiochem, San Diego, Calif.) and examined by fluorescence microscopy. The number of GFP-positive cells with GFP-LC3 puncta formation was examined under the Nikon ECLIPSE 80i microscope. Representative images were captured with CCD digital camera Spot RT3™ (Diagnostic Instruments, Inc., Melville, N.Y.). To quantify for autophagy, the percentage of cells with punctate GFP-LC3 fluorescence was calculated by counting the number of the cells with punctate GFP-LC3 fluorescence in GFP-positive cells. A minimum of 150 cells from 3 randomly selected fields was scored.

[4] = system: P-AMPK and P-p70S6K in PC12 cells; test: Western blot of mTOR signaling marker proteins; format: cell-based, rat
Procedure: Detection of mTOR signaling marker proteins. PC12 cells treated with indicated time and concentrations of Onjisaponin B were harvested and lysed in RIPA buffer (Cell Signaling). The cell lysates were then resolved by SDS-PAGE. After electrophoresis, the proteins from SDS-PAGE were transferred to nitrocellulose membrane which was then blocked with 5% non-fat dried milk for 60 minutes. The membrane was then incubated with P-p70S6K, p70S6K, P-AMPK, AMPK primary antibodies (1:1000) in TBST overnight at 4° C. respectively. After that, the membrane was further incubated with HRP-conjugated secondary antibodies for 60 minutes. Finally, protein bands were visualized by using the ECL Western Blotting Detection Reagents (Invitrogen).

[5] = system: PC12 cells expressing GFP-LC3; test: GFP-LC3 puncta in the presence of specific inhibitors; format: cell-based, rat; conditions: 12 hours
Procedure: Quantification of Onjisaponin B-mediated autophagy in the presence of specific inhibitors. GFP-LC3 puncta formation was quantified as described previously. In brief, PC12 cells expressing GFP-LC3 were treated with Onjisaponin B (Onji, 25 μM) in the presence of AMPK inhibitor (compound C) (CC, 5 μM) or 3-Methyladenine (3-MA, 5 mM) for 12 hours. The cells were then fixed in 4% paraformaldehyde for 20 minutes at room temperature and then rinsed with PBS. Slides were mounted with FluorSave™ mounting media (Calbiochem) and examined by fluorescence microscopy. To quantify for autophagy, the percentage of cells with punctate GFP-LC3 fluorescence was calculated by counting the number of the cells with punctate GFP-LC3 fluorescence in GFP-positive cells. A minimum of 150 cells from 3 randomly selected fields was scored.

[6] = system: mutant huntingtin EGFP-HDQ74 in PC 12 cells; test: Removal of mutant huntingtin, immunoblotting against EGFP; format: cell-based, rat; conditions: 24 hours treatment
Procedure: (§1) Removal of mutant huntingtin and mutant α-synuclein. PC 12 cells were transfected transiently with EGFP-HDQ74 plasmids for 24 hours using Lipofectamine Plus LTX reagent (Invitrogen) according to the manufacturer's protocol. The transfected cells were then treated with Onjisaponin B for 24 hours. The removal of mutant huntingtin, EGFP-HDQ74, was then quantitated by immunoblotting with antibody against EGFP. To measure the clearance of α-synuclein in cellular model, the overexpression of mutant A53T α-synuclein was first induced by the addition of doxycycline (1 μg/ml) (Sigma) for 24 hours, by using the doxycycline inducible PC 12 cell line transfected with A53T α-synuclein plasmid. The expression of mutant A53T α-synuclein was then switched off by removing doxycycline from medium. Cells were then incubated with Onjisaponin B for a further 24 hours. The clearance of mutant α-synuclein was then measured by immunoblotting with antibody against myc tag.

[7] = system: mutant A53T α-synuclein in doxycycline inducible PC 12 cell line; test: Clearance of mutant A53T α-synuclein, immunoblotting against myc tag; format: cell-based, rat; conditions: PC 12 cells, 24 hours after doxycycline removal
Procedure: as §1

`COc1ccc(/C=C/C(=O)O[C@@H]2[C@H](O[C@@H]3O[C@@H](C)[C@H](O)[C@@H](O)[C@H]3O)[C@@H](O[C@@H]3O[C@@H](C)[C@H](O[C@@H]4OC[C@@H](O[C@@H]5O[C@H](CO)[C@H](O)[C@H](O)[C@H]5O)[C@H](O)[C@H]4O)[C@@H](O)[C@H]3O)[C@H](OC(=O)[C@]34CCC(C)(C)C[C@H]3C3=CC[C@@H]5[C@@]6(C)C[C@H](O)[C@H](O[C@@H]7O[C@H](CO)[C@@H](O)[C@H](O)[C@H]7O)[C@@](C)(C(=O)O)[C@@H]6CC[C@@]5(C)[C@]3(CO)CC4)O[C@@H]2C)cc1` [Onjisaponin B] was tested, and the “Morphological damage in PC12 cells (crystal violet assay)” value [1] was “no significant morphological damage”, the “LC3-II conversion (western blot)” value [2] was “increase of LC3-II conversion” and the “Rate of LC3-II formation in the presence of protease inhibitors (autophagic flux)” value ([2]; with 10 µg/mL E64D and pepstain A) was “increased the rate of LC3-II formation”. The “GFP-LC3 puncta formation in wild type Atg7 cells” value [3] was “induce GFP-LC3 puncta formation”, the “Phosphorylation of AMPK” value ([4]; 25 μM at 8, 16, 24 hour, 3, 6.25, 12.5, 25 μM at 24 hour) was “activate the phosphorylation of AMPK in a time dependent manner” and the p70S6K phosphorylation ([4]; same treatments as AMPK blot) was “concomitant reduction in its downstream p70S6K phosphorylation”. The “Onjisaponin B-induced GFP-LC3 puncta formation in the presence of 3-Methyladenine” value ([5]; Onjisaponin B 25 μM + 3-MA 5 mM) was “significant reduction”, the “Onjisaponin B-induced GFP-LC3 puncta formation in the presence of AMPK inhibitor (compound C)” value ([5]; Onjisaponin B 25 μM + compound C 5 μM) was “significant reduction” and the “Clearance of overexpressed EGFP-tagged mutant huntingtin with 74 CAG repeats” value [6] was “enhanced the clearance”. The “Clearance of myc-tagged mutant A53T α-synuclein” value [7] was “accelerate the clearance”.
